Experimental data: the supplement of paper PMC10307832

Tests used:
Experiment in all cases: relative viability (nuclei count vs DMSO), 5 days (fraction); higher = more cells survive
[1] = compound: C1COCCN1C2=NC(=NC3=C2OC4=C3C=CC=N4)C5=CC(=CC=C5)NC(=O)C6=CN=C(C=C6)N + Cc1cc(Nc2cc(N3CCN(C)CC3)nc(Sc3ccc(NC(=O)C4CC4)cc3)n2)n[nH]1 [Tozasertib] (partner 0.1 µM)
Outline: (§1)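 Each reported value is a median over duplicate plates. It expresses relative viability: treated-well nuclei count divided by vehicle-well nuclei count. Lung cancer cell lines in 1536-well plates were dosed by pin tool a day after seeding, alone with one drug or with a fixed anchor-drug dose plus five library-drug doses (not always all listed) in √10 steps, and nuclei were counted after 5 days.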

[2] = compound: CN1CCC(CNc2ccc3ncc(-c4cccc(OC(F)(F)F)c4)n3n2)CC1 [SGI-1776] + COc1cccc2cc(-c3nc([C@H]4CC[C@H](C(=O)O)CC4)n4ncnc(N)c34)[nH]c12 [OSI-027] (partner 0.5 µM)
Outline: as §1

[3] = compound: Nc1ccccc1NC(=O)c1ccc(CNC(=O)OCc2cccnc2)cc1 [Entinostat] + C[C@]1(O)C[C@@H](c2nc(-c3ccc4ccc(-c5ccccc5)nc4c3)c3c(N)nccn32)C1 [Linsitinib] (partner 1 µM)
Outline: as §1

[4] = compound: Nc1ccccc1NC(=O)c1ccc(CNC(=O)OCc2cccnc2)cc1 [Entinostat] + Nc1ncn([C@H]2C[C@H](O)[C@@H](CO)O2)c(=O)n1 [Decitabine] (partner 2 µM)
Outline: as §1

Cell Line	relative viability ([1]; first compound 0.02 µM)	relative viability ([1]; first compound 0.06325 µM)	relative viability ([1]; first compound 0.2 µM)	relative viability ([1]; first compound 0.6325 µM)	relative viability ([1]; first compound 2 µM)	relative viability ([2]; first compound 0.08 µM)	relative viability ([2]; first compound 0.8 µM)	relative viability ([2]; first compound 2.53 µM)	relative viability ([2]; first compound 8 µM)	relative viability ([3]; first compound 0.02 µM)	relative viability ([3]; first compound 0.06325 µM)	relative viability ([3]; first compound 0.2 µM)	relative viability ([3]; first compound 0.6325 µM)	relative viability ([3]; first compound 2 µM)	relative viability ([4]; first compound 0.02 µM)	relative viability ([4]; first compound 0.06325 µM)	relative viability ([4]; first compound 0.2 µM)	relative viability ([4]; first compound 0.6325 µM)	relative viability ([4]; first compound 2 µM)
NCI-H1437	0.437	0.424	0.398	0.377	0.241	0.913	0.976	0.819	0.806	0.92	0.565	0.298	0.151	0.113	0.522	0.436	0.357	0.267	0.217
NCI-H2347	0.513	0.711	0.42	0.544	0.387	0.421	0.489	0.518	0.426	0.987	0.984	0.903	0.408	0.349	0.611	0.585	0.494	0.471	0.363
NCI-H1666	0.614	0.615	0.588	0.513	0.501	0.953	0.853	0.759	0.674	0.874	0.783	0.476	0.498	0.313	0.887	0.793	0.707	0.669	0.511
NCI-H1993	0.551	0.569	0.524	0.567	0.538	0.549	0.52	0.551	0.525	0.642	0.832	0.673	0.65	0.661	0.537	0.54	0.559	0.645	0.466
COR-L23	0.219	0.223	0.143	0.181	0.159	0.781	0.87	0.74	0.582	0.829	0.763	0.748	0.416	0.132	0.402	0.413	0.356	0.217	0.141
HCC-44	0.882	1.04	0.829	0.766	0.546	0.672	0.493	0.407	0.28	0.676	0.474	0.357	0.27	0.197	0.997	0.841	0.938	0.721	0.611
LU99A	0.277	0.276	0.231	0.21	0.173	0.294	0.286	0.303	0.262	0.505	0.552	0.479	0.394	0.348	0.953	0.952	0.749	0.696	0.646
NCI-H460	0.465	0.509	0.209	0.392	0.0489	0.68	0.587	0.646	0.255	0.664	0.685	0.378	0.0221	0.0142	0.438	0.372	0.203	0.0553	0.0422
NCI-H650	0.769	0.766	0.737	0.799	0.513	0.565	0.489	0.501	0.378	1.03	1.16	0.902	0.552	0.243	0.312	0.336	0.252	0.278	0.226
NCI-H1975	0.893	0.699	0.315	0.225	0.215	0.72	0.688	0.525	0.428	0.791	0.755	0.692	0.302	0.27	0.358	0.35	0.301	0.169	0.155
NCI-H1355	0.628	0.602	0.515	0.36	0.352	0.46	0.486	0.402	0.305	0.811	0.769	0.653	0.551	0.468	0.356	0.335	0.3	0.315	0.266
NCI-H1755	0.606	0.572	0.468	0.414	0.473	0.703	0.637	0.533	0.529	0.984	0.988	0.866	0.625	0.412	0.681	0.71	0.583	0.494	0.45
NCI-H2009	0.8	0.749	0.726	0.655	0.433	0.653	0.636	0.591	0.282	1.28	1.18	1.06	0.8	0.651	0.433	0.385	0.4	0.409	0.323
LK-2	0.172	0.156	0.167	0.154	0.176	0.247	0.216	0.201	0.159	0.522	0.59	0.639	0.459	0.274	0.311	0.335	0.262	0.165	0.115
HCC-78	0.394	0.427	0.432	0.367	0.24	0.407	0.418	0.385	0.398	0.496	0.395	0.306	0.156	0.151	0.823	0.726	0.595	0.594	0.371
NCI-H3122	0.404	0.47	0.341	0.364	0.289	0.988	0.967	0.926	0.862	1.02	1.03	1.07	1.08	0.868	0.439	0.47	0.477	0.339	0.243
HOP-62	0.358	0.396	0.337	0.312	0.225	0.882	0.866	0.802	0.81	0.743	1.01	0.711	0.403	0.266	0.272	0.248	0.248	0.213	0.132

Cell Line	relative viability ([1]; first compound 0.02 µM)	relative viability ([1]; first compound 0.06325 µM)	relative viability ([1]; first compound 0.2 µM)	relative viability ([1]; first compound 0.6325 µM)	relative viability ([1]; first compound 2 µM)	relative viability ([2]; first compound 0.08 µM)	relative viability ([2]; first compound 0.8 µM)	relative viability ([2]; first compound 2.53 µM)	relative viability ([2]; first compound 8 µM)	relative viability ([3]; first compound 0.02 µM)	relative viability ([3]; first compound 0.06325 µM)	relative viability ([3]; first compound 0.2 µM)	relative viability ([3]; first compound 0.6325 µM)	relative viability ([3]; first compound 2 µM)	relative viability ([4]; first compound 0.02 µM)	relative viability ([4]; first compound 0.06325 µM)	relative viability ([4]; first compound 0.2 µM)	relative viability ([4]; first compound 0.6325 µM)	relative viability ([4]; first compound 2 µM)
NCI-H661	0.34	0.347	0.328	0.342	0.354	0.766	0.867	0.611	0.596	0.481	0.769	0.678	0.725	0.624	0.58	0.549	0.538	0.479	0.356
NCI-H358	–	0.117	0.0984	0.099	0.0866	0.747	0.856	0.663	0.304	0.699	0.905	0.934	0.503	0.238	0.188	0.201	0.173	0.153	0.137
BEN	0.593	0.444	0.488	0.513	0.386	0.316	0.289	0.264	0.323	0.974	0.928	0.83	0.537	0.249	0.774	0.956	0.657	0.447	0.345
SK-MES-1	0.957	1.01	0.824	0.851	0.362	0.673	0.585	0.649	0.314	1.11	1.05	1.23	0.983	0.69	0.362	0.36	0.434	0.303	0.331
NCI-H2085	0.667	0.826	0.691	0.456	0.463	0.745	0.828	0.853	0.44	0.871	0.865	0.788	0.574	0.499	0.552	0.545	0.51	0.483	0.405
LCLC-103H	0.537	0.511	0.471	0.46	0.35	0.481	0.446	0.457	0.425	1.07	1.12	0.937	0.931	0.715	0.714	0.72	0.757	0.488	0.472
201T	0.959	1.04	0.915	0.913	0.452	0.823	0.703	0.708	0.6	1.1	1.13	1.09	0.902	0.617	0.82	0.692	0.777	0.401	0.406
NCI-H2023	0.371	0.369	0.158	0.142	0.13	0.415	0.388	0.319	0.167	0.671	0.778	0.48	0.191	0.133	0.199	0.14	0.157	0.0887	0.0748
NCI-H1395	0.78	0.709	0.772	0.719	0.576	0.78	0.582	0.627	0.448	1.1	1.13	1.01	0.885	0.594	0.693	0.726	0.626	0.556	0.492
NCI-H23	0.329	–	0.185	0.615	0.263	0.676	0.547	0.724	0.437	0.723	0.567	0.782	0.531	0.399	0.32	0.344	0.3	0.268	0.234
LXF-289	0.177	0.181	0.156	0.145	0.119	0.794	0.843	0.764	0.707	0.982	0.985	0.917	0.785	0.632	0.422	0.381	0.446	0.358	0.31
EKVX	0.396	0.391	0.34	0.408	0.236	0.707	0.736	0.755	0.612	0.896	1.01	0.79	0.663	0.438	0.307	0.351	0.281	0.207	0.244
LC-2-ad	0.428	0.499	0.46	0.473	0.392	0.918	0.806	0.973	0.548	0.769	0.831	0.7	0.489	0.219	0.833	0.74	0.642	0.611	0.438
ABC-1	0.177	0.183	0.167	0.406	0.222	0.401	0.552	0.472	0.407	0.686	0.992	0.807	0.481	0.506	1.04	1.41	1.1	0.91	0.626
NCI-H596	0.85	0.932	0.874	0.761	0.661	0.809	0.761	0.682	0.467	1.08	1.17	0.958	0.9	0.799	0.9	1.11	0.869	1.01	0.66
NCI-H1734	0.272	0.254	0.257	0.229	0.186	0.686	0.645	0.615	0.403	0.908	0.985	0.987	0.916	0.817	0.555	0.483	0.464	0.451	0.298
LOU-NH91	0.591	0.738	0.649	0.652	0.465	0.777	0.726	0.826	0.56	0.911	1.02	0.95	0.816	0.714	0.813	0.788	0.802	0.771	0.689
